Consider 51 molecules from patent US6686350B1, “Cell adhesion inhibitors” (Biogen, Inc., priority 1996, dated 2004).

T1 sequence (P13612 34-1032): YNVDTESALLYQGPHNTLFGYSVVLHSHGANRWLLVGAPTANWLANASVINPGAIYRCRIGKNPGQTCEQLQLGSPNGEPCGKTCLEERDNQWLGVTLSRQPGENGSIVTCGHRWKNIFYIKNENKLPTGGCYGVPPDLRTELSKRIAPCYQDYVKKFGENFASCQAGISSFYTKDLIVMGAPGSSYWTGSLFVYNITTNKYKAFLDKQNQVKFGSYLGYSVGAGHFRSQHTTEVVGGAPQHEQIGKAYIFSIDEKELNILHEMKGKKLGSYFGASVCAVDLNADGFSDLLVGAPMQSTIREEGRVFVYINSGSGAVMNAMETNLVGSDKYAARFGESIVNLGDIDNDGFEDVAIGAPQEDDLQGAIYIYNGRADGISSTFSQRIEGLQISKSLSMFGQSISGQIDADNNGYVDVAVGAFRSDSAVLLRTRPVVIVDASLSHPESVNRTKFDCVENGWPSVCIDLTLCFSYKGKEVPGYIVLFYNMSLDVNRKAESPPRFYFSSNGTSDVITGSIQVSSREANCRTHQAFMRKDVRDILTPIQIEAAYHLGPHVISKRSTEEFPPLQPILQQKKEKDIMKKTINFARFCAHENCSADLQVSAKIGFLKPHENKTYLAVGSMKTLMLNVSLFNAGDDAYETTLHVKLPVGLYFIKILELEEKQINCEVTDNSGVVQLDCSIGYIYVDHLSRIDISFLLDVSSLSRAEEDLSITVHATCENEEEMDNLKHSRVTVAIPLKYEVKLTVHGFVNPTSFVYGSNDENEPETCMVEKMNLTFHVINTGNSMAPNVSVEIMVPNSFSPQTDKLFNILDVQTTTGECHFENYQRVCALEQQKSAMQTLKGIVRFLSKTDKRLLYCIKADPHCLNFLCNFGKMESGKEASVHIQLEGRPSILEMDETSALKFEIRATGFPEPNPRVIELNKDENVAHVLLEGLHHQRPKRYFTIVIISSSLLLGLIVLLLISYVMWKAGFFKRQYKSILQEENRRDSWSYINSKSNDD
T1 sequence (P05556 21-798): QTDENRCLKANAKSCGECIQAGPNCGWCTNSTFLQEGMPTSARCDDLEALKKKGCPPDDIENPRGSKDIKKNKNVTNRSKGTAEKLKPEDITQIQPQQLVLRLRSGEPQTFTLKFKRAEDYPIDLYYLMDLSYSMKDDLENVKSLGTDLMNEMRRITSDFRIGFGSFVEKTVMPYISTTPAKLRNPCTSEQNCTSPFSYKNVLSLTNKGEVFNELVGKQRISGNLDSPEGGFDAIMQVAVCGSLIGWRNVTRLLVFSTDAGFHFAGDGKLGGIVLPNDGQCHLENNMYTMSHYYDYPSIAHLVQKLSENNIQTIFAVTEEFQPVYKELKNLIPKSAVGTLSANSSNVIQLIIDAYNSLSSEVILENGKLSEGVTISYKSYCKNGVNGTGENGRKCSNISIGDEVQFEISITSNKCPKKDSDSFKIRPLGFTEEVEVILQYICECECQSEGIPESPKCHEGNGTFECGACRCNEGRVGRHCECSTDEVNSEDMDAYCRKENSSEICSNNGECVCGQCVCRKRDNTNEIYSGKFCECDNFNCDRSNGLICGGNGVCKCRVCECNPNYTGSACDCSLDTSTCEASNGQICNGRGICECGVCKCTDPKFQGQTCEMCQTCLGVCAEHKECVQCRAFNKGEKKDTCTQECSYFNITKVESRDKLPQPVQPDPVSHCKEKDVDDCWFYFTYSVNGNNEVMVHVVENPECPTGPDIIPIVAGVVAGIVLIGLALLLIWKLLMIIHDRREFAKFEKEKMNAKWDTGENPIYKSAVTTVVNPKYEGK

One experiment addresses T1, VLA-4 (Homo sapiens, UniProt P05556+P13612).
T1 construct: endogenous in cells; host or cells: Jurkat cells
The experiment in a line: VLA-4 direct binding assay (VCAM-IgG alkaline phosphatase conjugate binding to Jurkat cells). The conditions noted are these: Table 1, Structure-Activity; assay and unit inferred; read-out: Act. The source says:
A direct binding assay may also be employed to quantitate the inhibitory activity of the compounds of this invention. (“DBA”) In direct binding assays, for example, a VCAM-IgG fusion protein containing the first two immunoglobulin domains of VCAM (D1D2) attached above the hinge region of an IgG1 molecule (“VCAM 2D-IgG”), is conjugated to a marker enzyme, such as alkaline phosphatase (“AP”). The synthesis of this VCAM-IgG fusion is described in PCT publication WO 90/13300, the disclosure of which is herein incorporated by reference. The conjugation of that fusion to a marker enzyme can be achieved by cross-linking methods well-known in the art.
The VCAM-IgG enzyme conjugate is then placed in the wells of a multi-well filtration plate, such as that contained in the Millipore Multiscreen Assay System (Millipore Corp., Bedford, Mass.). Varying concentrations of the test inhibitory compound are then added to the wells followed by addition of VLA-4-expressing cells. The cells, compound and VCAM-IgG enzyme conjugate are mixed together and allowed to incubate at room temperature.
Following incubation, the wells are vacuum drained, leaving behind the cells and any bound VCAM. Quantitation of bound VCAM is determined by adding an appropriate calorimetric substrate for the enzyme conjugated to VCAM-IgG and determining the amount of reaction product. Decreased reaction product indicates increased binding inhibitory activity. The protocol is described more specifically below:
1. Block a 96 well Millipore Multiscreen Assay System filtration plate^1 with 200:l/well of blocking buffer (1×Phosphate Buffered Saline, 0.1%Tween 20, 1%BSA) for at least 1 hour at room temperature.
2. Drain the plate with the vacuum manifold, and wash with 200 μl/well of assay buffer (Tris Buffered Saline, 0.1% BSA, 2 mM glucose, 10 mM HEPES, pH 7.5) draining the plate in between. Repeat twice. Then blot the plate bottom on paper to remove excess buffer.
3. Prepare a 4 μg/ml VCAMIg-AP solution (Alkaline phosphatase coupled to VCAMIg) in assay buffer and filter with a 0.2:low protein binding syringe filter (Gelman Sciences #4454). From this stock, prepare a 0.4 μg/ml working solution of VCAMIg-AP in assay buffer. Add 25:l of 0.4 μg/ml VCAMIg-AP to every well.
5. Prepare dilutions of compounds to be tested in assay buffer. Concentrations should be 4× the desired final concentration and run in triplicate. Add 25 μl of the compound dilutions to designated wells.
7. Jurkat cells are centrifuged to remove cell culture media and washed once in assay buffer. Resuspend the washed Jurkat cells to a concentration of 8×10^6/ml in assay buffer containing 2 mM MnCl2. Pipeting the mixture up and down to ensure a uniform cell suspension. Add 50:l of cell suspension to each well except the NSB wells.
8. Gently tap the sides of the plate to mix well contents. Incubate the plate for 60 minutes at room temperature (RT).
9. Place the plate on the vacuum manifold to drain the well contents. Wash twice with 100 μl/well of wash buffer (assay buffer containing 1 mM MnCl2). Drain the plate and blot on paper towels.
10. Add 10 mg/ml of 4-Nitro phenyl phosphate to Substrate buffer (0.1M glycine, 1 mM ZnCl2, 1 mM MgCl2, pH 10.5). Add 100 μl/well and incubate for exactly 30 minutes at RT.
11. To stop the reaction, add 100 μl/well of 3N NaOH.
12. Read the 96-well plate in a Molecular Devices ELISA platereader at 405 nm. Analyze data with SoftMax software.
For the molecule `Cc1ccccc1NC(=O)Nc1ccc(NC(=O)[C@@H]2CCCN2C(=O)CC(C)CCC(=O)O)cc1` (stereo partly drawn) [CX11], the IC50 is 144 nM.

Consider `Cc1ccccc1NC(=O)Nc1ccc(NC(=O)[C@@H]2CSCN2C(=O)CCCCC(=O)O)cc1` [CX12], for which the IC50 is 63.5 nM.

In the case of `Cc1ccccc1NC(=O)Nc1ccc(NC(=O)CN(CCC(C)C)C(=O)CCCCC(=O)O)cc1` [CX13], the IC50 was 52.5 nM.

On to `O=C(O)CCNC(=O)[C@@H]1CCCN(C(=O)Cc2ccc(NC(=O)Nc3ccccc3)cc2)C1` [MX1], for which the IC50 was 872 nM.

In the case of `COc1ccc(CNC(=O)C2=C(C(=O)N[C@@H](CC(=O)O)c3ccc(OC)cc3)CCC2)cc1` [MX2], the IC50 stood at 250 nM.

For `Cc1ccccc1NC(=O)Nc1ccc(CC(=O)Nc2cccc(S(=O)(=O)NC(C)CC(=O)O)c2)cc1` (stereo not drawn) [RX2], the IC50 stood at 10600 nM.

Take `Cc1ccccc1NC(=O)Nc1ccc(CC(=O)Nc2cccc(OCCCCC(=O)O)c2)cc1` [RX4]: the IC50 was determined as 4460 nM.

With `Cc1ccccc1NC(=O)Nc1ccc(CC(=O)Nc2cccc(S(=O)(=O)NCCC(=O)O)c2)cc1` [RX5], the IC50 was found to be 3810 nM.

On to `Cc1ccccc1NC(=O)Nc1ccc(CC(=O)Nc2cccc(OCCC(C)C(=O)O)c2)cc1` (stereo not drawn) [RX6], for which the IC50 was found to be 2590 nM.

Turning to `COc1ccc(NC(=O)Cc2ccc(NC(=O)Nc3ncccc3C)cc2)cc1OCCCC(=O)O` [RX7], the IC50 was found to be 2300 nM.

In the case of `Cc1ccccc1NC(=O)Nc1ccc(CC(=O)Nc2cccc(CN(CCC(=O)O)C(=O)Cc3ccccc3)c2)cc1` [RX8], the IC50 was 2250 nM.

Consider `Cc1ccccc1NC(=O)Nc1ccc(CC(=O)Nc2cc(OCCCC(=O)O)ccc2C(C)C)cc1` [RX10], for which the IC50 was found to be 2040 nM.

As to `Cc1ccccc1NC(=O)Nc1ccc(CC(=O)NCc2cccc(OCC(=O)O)c2)cc1` [RX11], the IC50 was 1140 nM.

`Cc1ccccc1NC(=O)Nc1ccc(NC(=O)Nc2cccc(OCCCC(=O)O)c2)cc1` [RX13]: the IC50 worked out at 686 nM.

With `Cc1ccccc1NC(=O)Nc1ccc(CC(=O)NCc2cccc(OCCCC(=O)O)c2)cc1` [RX14], the IC50 was found to be 652 nM.

With `Cc1ccccc1NC(=O)Nc1ccc(CC(=O)Nc2cccc(NCCC(=O)O)c2)cc1` [RX15], the IC50 is 650 nM.

Regarding `Cc1ccccc1NC(=O)Nc1ccc(CC(=O)Nc2cc(OCCCC(=O)O)cc(OCCC(C)C)c2)cc1` [RX16], the IC50 worked out at 574 nM.

As to `Cc1ccccc1NC(=O)Nc1ccc(CC(=O)Nc2ccc(C(=O)O)c(OCCCC(=O)O)c2)cc1` [RX17], the IC50 worked out at 406 nM.

For the molecule `Cc1ccccc1NC(=O)Nc1ccc(CC(=O)Nc2cccc(CN(CCC(=O)O)C(=O)c3ccccc3)c2)cc1` [RX18], the IC50 came out at 350 nM.

Take `Cc1ccccc1NC(=O)Nc1ccc(CC(=O)Nc2cccc(OCCC(=O)O)c2)cc1` [RX19]: the IC50 came to 317 nM.

With `CC(=O)N(CCCC(=O)O)Cc1cccc(NC(=O)Cc2ccc(NC(=O)Nc3ccccc3C)cc2)c1` [RX20], the IC50 worked out at 250 nM.

Take `Cc1ccccc1NC(=O)Nc1ccc(CC(=O)Nc2cccc(OC/C=C/C(=O)O)c2)cc1` [RX21]: the IC50 amounted to 285 nM.

As for `COC(=O)CCCOc1cc(NC(=O)Cc2ccc(NC(=O)Nc3ccccc3C)cc2)cc(OCCCC(=O)O)c1` [RX22], the IC50 was found to be 157 nM.

With `Cc1ccccc1NC(=O)Nc1ccc(CC(=O)Nc2cccc(OCCCC(=O)O)c2)cc1` [RX23], the IC50 was found to be 144 nM.

As for `Cc1ccccc1NC(=O)Nc1ccc(CC(=O)Nc2ccc(C)c(OCCCC(=O)O)c2)cc1` [RX24], the IC50 came out at 855 nM.

Turning to `COc1cc(NC(=O)Cc2ccc(NC(=O)Nc3ccccc3C)cc2)cc(OCCCC(=O)O)c1` [RX26], the IC50 worked out at 77.7 nM.

Consider `CCOc1cc(NC(=O)Cc2ccc(NC(=O)Nc3ccccc3C)cc2)cc(OCCCC(=O)O)c1` [RX27], for which the IC50 amounted to 50 nM.

Turning to `COc1ccc([C@H](CC(=O)O)NC(=O)C(CC(=O)Nc2ccc(NC(=O)c3ccccc3)cc2)CC(C)C)cc1OC` (stereo partly drawn) [SX3], the IC50 was found to be 165 nM.

As for `COc1ccc(C(CC(=O)O)NC(=O)C(CC(=O)NCc2ccccc2)CC(C)C)cc1` (stereo not drawn) [SX6], the IC50 was found to be 6750 nM.

Turning to `Cc1ccccc1NC(=O)Nc1ccc(NC(=O)CC(CC(C)C)C(=O)N[C@@H](CC(=O)O)CN2CCOCC2)cc1` (stereo partly drawn) [SX7], the IC50 turned out to be 5980 nM.

For the molecule `COc1ccc([C@H](CC(=O)O)NC(=O)C(C)CC(=O)Nc2ccc(NC(=O)Nc3ccccc3C)cc2)cc1OC` (stereo partly drawn) [SX9], the IC50 turned out to be 5120 nM.

Take `COc1ccc(C(CC(=O)O)NC(=O)C(CC(=O)Nc2ccc(NC(=O)Nc3ccccc3C)cc2)CC(C)C)cc1` (stereo not drawn) [SX13]: the IC50 came out at 3490 nM.

For `COc1ccc([C@H](CC(=O)O)NC(=O)C(CC(=O)Nc2ccc(CCCc3ccccc3)cc2)CC(C)C)cc1OC` (stereo partly drawn) [SX14], the IC50 is 8240 nM.

Turning to `COc1ccc([C@H](CC(=O)O)NC(=O)C(CC(=O)Nc2ccc(C(N)=O)cc2)CC(C)C)cc1OC` (stereo partly drawn) [SX15], the IC50 was determined as 3000 nM.

Consider `COc1ccc([C@H](CC(=O)O)NC(=O)C(N)CC(=O)Nc2ccc(NC(=O)Nc3ccccc3C)cc2)cc1OC` (stereo partly drawn) [SX19], for which the IC50 is 1940 nM.

Take `COc1ccc(C(CC(=O)O)NC(=O)C(CC(=O)Nc2ccc(NC(=O)Nc3ccccc3)cc2)CC(C)C)cc1` (stereo not drawn) [SX23]: the IC50 came to 1330 nM.

On to `Cc1ccccc1NC(=O)Nc1ccc(NC(=O)C2CC2C(=O)N[C@@H](CC(=O)O)c2ccc3c(c2)OCO3)cc1` (stereo partly drawn) [SX25], for which the IC50 came to 810 nM.

With `Cc1ccccc1NC(=O)Nc1ccc(N2CC[C@@H](CC(=O)N[C@H](C)CC(=O)O)C2=O)cc1` [SX26], the IC50 was 769 nM.

`COc1ccc(C(CC(=O)O)NC(=O)C(CC(=O)NCc2ccccc2)CC(C)C)cc1` (stereo not drawn) [SX28]: the IC50 is 717 nM.

Consider `COc1ccc([C@H](CC(=O)O)NC(=O)C(CC(=O)Nc2ccc(COCc3ccccc3)cc2)CC(C)C)cc1OC` (stereo partly drawn) [SX29], for which the IC50 was 700 nM.

`COc1ccc(C(CC(=O)O)NC(=O)[C@@H](CC(=O)Nc2ccc(COc3ccccc3C)cc2)CC(C)C)cc1OC` (stereo partly drawn) [SX31]: the IC50 amounted to 680 nM.

Consider `COc1ccc(C(CC(=O)O)NC(=O)C(CC(=O)Nc2ccc(CCSc3ccccc3C)cc2)CC(C)C)cc1OC` (stereo not drawn) [SX32], for which the IC50 came out at 660 nM.

Regarding `Cc1ccccc1NC(=O)Nc1ccc(CNC(=O)C(CC(=O)NC(CC(=O)O)c2ccc3c(c2)OCO3)CC(C)C)cc1` (stereo not drawn) [SX34], the IC50 was determined as 500 nM.

As for `Cc1ccccc1NC(=O)Nc1ccc(NC(=O)CCC(=O)N[C@H](C)CC(=O)O)cc1` [SX35], the IC50 is 468 nM.

Regarding `COc1ccc([C@H](CC(=O)O)NC(=O)C(O)CC(=O)Nc2ccc(NC(=O)Nc3ccccc3C)cc2)cc1OC` (stereo partly drawn) [SX38], the IC50 came out at 404 nM.

With `COc1ccc([C@H](CC(=O)O)NC(=O)C(CC(=O)Nc2ccc(CCc3ccccc3C)cc2)CC(C)C)cc1OC` (stereo partly drawn) [SX39], the IC50 turned out to be 397 nM.

As for `COc1ccc([C@H](CC(=O)O)NC(=O)C(CC(=O)Nc2ccc(/C=C/c3ccccc3C)cc2)CC(C)C)cc1OC` (stereo partly drawn) [SX40], the IC50 turned out to be 335 nM.

Take `COc1ccc([C@H](CC(=O)O)NC(=O)C(CC(=O)Nc2ccc(NC(=O)Nc3ccccc3)cc2)CC(C)C)cc1OC` (stereo partly drawn) [SX41]: the IC50 amounted to 310 nM.

For `COc1ccc([C@H](CC(=O)O)NC(=O)C(CC(=O)Nc2ccc(NC(=O)NS(=O)(=O)c3ccccc3C)cc2)CC(C)C)cc1OC` (stereo partly drawn) [SX42], the IC50 came to 298 nM.

Consider `CC(CC(=O)Nc1ccc(NC(=O)Nc2ccccc2)cc1)C(=O)N[C@H](C)CC(=O)O` (stereo partly drawn) [SX43], for which the IC50 was determined as 247 nM.

Still in this experiment, the particulars now being: qualitative statement.
In the case of `Cc1ccccc1NC(=O)Nc1ccc(NC(=O)CN(C)C(=O)CN(CCC(=O)O)C(=O)c2ccccc2)cc1` [Compound A], the VLA-4 inhibitory activity result is reported as “having VLA-4 inhibitory activity”.
